Data on 27 compounds can be found in ChEMBL document CHEMBL1150547, “-Phenoxyphenylacetic acid derived angiotensin II antagonists with low nanomolar AT1/AT2 receptor subtype affinity (Part II)” (Bioorg Med Chem Lett, 1995).

Assay [1] deals with T1, Type-2 angiotensin II receptor (Rattus norvegicus, UniProt P35351).
T1 sequence (P35351 whole entry): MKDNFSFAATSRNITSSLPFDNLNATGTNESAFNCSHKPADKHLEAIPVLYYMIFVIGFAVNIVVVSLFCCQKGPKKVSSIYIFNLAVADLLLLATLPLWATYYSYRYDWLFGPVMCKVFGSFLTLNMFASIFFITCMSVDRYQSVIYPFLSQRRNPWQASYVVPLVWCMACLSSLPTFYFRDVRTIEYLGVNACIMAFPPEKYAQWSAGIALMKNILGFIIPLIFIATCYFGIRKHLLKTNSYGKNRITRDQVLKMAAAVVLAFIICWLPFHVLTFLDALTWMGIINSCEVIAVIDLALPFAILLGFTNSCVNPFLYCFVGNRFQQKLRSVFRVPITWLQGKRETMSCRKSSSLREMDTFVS
As to the kind of experiment: Tested for its ability to displace the specific binding ligand [125I]-Sar 1,lle8-AlI from rat midbrain membrane (AT2 receptor). In kind it is tissue-based.

Assay [2] deals with T2, Type-1 angiotensin II receptor (Oryctolagus cuniculus, UniProt P34976).
T2 sequence (P34976 whole entry): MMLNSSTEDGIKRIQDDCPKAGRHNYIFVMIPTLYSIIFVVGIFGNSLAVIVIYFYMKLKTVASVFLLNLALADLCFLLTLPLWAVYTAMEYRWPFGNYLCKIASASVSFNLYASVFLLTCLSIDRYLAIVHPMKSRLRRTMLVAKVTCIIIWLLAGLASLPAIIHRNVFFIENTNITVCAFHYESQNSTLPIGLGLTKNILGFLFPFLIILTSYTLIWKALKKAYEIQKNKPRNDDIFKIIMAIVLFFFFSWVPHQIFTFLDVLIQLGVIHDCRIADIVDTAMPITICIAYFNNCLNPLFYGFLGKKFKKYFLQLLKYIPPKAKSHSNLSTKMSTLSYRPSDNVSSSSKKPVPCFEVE
As to the kind of experiment: Tested for its ability to displace the specific binding ligand [125I]-Sar 1,lle8-AlI from rabbit aortic membrane (AT1 receptor).

For the compound `CCc1nc2c(C)cc(C)nc2n1Cc1ccc(OC(C(=O)O)c2ccccc2C)cc1` (centres undefined), the IC50 (in general, the concentration at which inhibition is half-maximal) worked out at 5200 nM in assay [1] and 6 nM in assay [2].
On to `CCCc1cc(Cn2c(CC)nc3c(C)cc(C)nc32)ccc1OC(C(=O)O)c1ccccc1Cl` (centres undefined), for which the values for the IC50 in assay [1] and in assay [2] were more than 1000 nM and 8 nM, respectively.
Take `CCCc1cc(Cn2c(CC)nc3c(C)cc(C)nc32)ccc1OC(C(=O)O)c1ccccc1` (centres undefined): the values for the IC50 in assay [1] and in assay [2] were 47 nM and 11 nM, respectively.
Take `CCc1nc2c(C)cc(C)nc2n1Cc1ccc(OC(C(=O)O)c2ccccc2)cc1` (centres undefined): the IC50 in assay [1] turned out to be 2000 nM; in assay [2], 29 nM.
On to `CCCc1cc(Cn2c(CC)nc3c(C)cc(C)nc32)ccc1OC(C(=O)O)c1ccccc1OC` (centres undefined), for which the IC50 was 1200 nM in assay [1] and 9.5 nM in assay [2].
On to `C=CCc1cc(Cn2c(CC)nc3c(C)cc(C)nc32)cc(Cl)c1OC(C(=O)O)c1ccccc1` (centres undefined), for which the IC50 in assay [1] was found to be 760 nM; in assay [2], 2.2 nM.
Taken in the same sequence, the figures for `CCOc1cc(Cn2c(CC)nc3c(C)cc(C)nc32)ccc1OC(C(=O)O)c1ccccc1` (centres undefined) were 1200 nM and 140 nM.
`C=CCc1cc(Cn2c(CC)nc3c(C)cc(C)nc32)ccc1OC(C(=O)O)c1ccccc1` (centres undefined): the values for the concentration for half-maximal inhibition (IC50) in assay [1] and in assay [2] were 270 nM and 20 nM, respectively.
As to `CCc1nc2c(C)cc(C)nc2n1Cc1cc(Cl)c(OC(C(=O)O)c2ccccc2)c(Cl)c1` (centres undefined), the 50% inhibitory concentration (IC50) is 9000 nM in assay [1] and 21 nM in assay [2].
Consider `CCc1nc2c(C)cc(C)nn2c1Cc1ccc(OC(C(=O)O)c2ccccc2)cc1` (centres undefined), for which the IC50 in assay [1] was determined as 3000 nM; in assay [2] it was 69 nM.
With `CCc1cc(Cn2c(CC)nc3c(C)cc(C)nc32)ccc1OC(C(=O)O)c1ccccc1` (centres undefined), the IC50 in assay [1] amounted to 410 nM; in assay [2], 12 nM.
On to `CCc1nc2c(C)cc(C)nc2n1Cc1ccc(OC(C(=O)O)c2ccccc2)c(C(C)(C)C)c1` (centres undefined), for which the IC50 in assay [1] worked out at 300 nM; in assay [2] it was 50 nM.
For `CCc1nc2c(C)cc(C)nc2n1Cc1ccc(OC(C(=O)O)c2ccccc2)c(Cc2ccccc2)c1` (centres undefined), the figures for the IC50 in assay [1] and in assay [2] were 800 nM and 95 nM, respectively.
As to `CCc1nc2c(C)cc(C)nc2n1Cc1ccc(OC(C(=O)O)c2ccccc2Cl)cc1` (centres undefined), the IC50 in assay [1] was found to be 15000 nM; in assay [2] it was 10 nM.
On to `CCc1nc2c(C)cc(C)nc2n1Cc1ccc(OC(C(=O)O)c2ccccc2)c(C(C)C)c1` (centres undefined), for which the IC50 came out at 3300 nM in assay [1] and 30 nM in assay [2].
On to `CCc1nc2c(C)cc(C)nc2n1Cc1ccc(OC(C(=O)O)c2ccccc2)c(C(C)=O)c1` (centres undefined), for which the IC50 in assay [1] was determined as 610 nM; in assay [2], 62 nM.
`CCCCc1nc2ccccc2n1Cc1ccc(OC(C(=O)O)c2ccccc2)cc1` (centres undefined): the IC50 turned out to be 2000 nM in assay [1] and 93 nM in assay [2].
In the case of `CCc1nc2c(C)cc(C)nc2n1Cc1ccc(OC(C(=O)O)c2ccccc2)c(Cl)c1` (centres undefined), the IC50 was determined as 720 nM in assay [1] and 15 nM in assay [2].
As for `CCc1nc2c(C)cc(C)nc2n1Cc1ccc(OC(C(=O)O)c2ccccc2)c(OC)c1` (centres undefined), the IC50 in assay [1] was found to be 2900 nM; in assay [2], 170 nM.
Taken in the same sequence, the figures for `CCc1nc2c(C)cc(C)nc2n1Cc1ccc(OC(C(=O)O)c2ccccc2)c(C)c1` (centres undefined) were 940 nM and 14 nM.
As for `CCc1nc2c(C)cc(C)nc2n1Cc1cc(Cl)c(OC(C(=O)O)c2ccccc2)c(OC)c1` (centres undefined), the concentration for half-maximal inhibition (IC50) in assay [1] is 7800 nM; in assay [2], 16 nM.
Turning to `CCc1nc2c(C)cc(C)nc2n1Cc1ccc(OC(C(=O)O)c2ccccc2)c(C(=O)c2ccccc2)c1` (centres undefined), the IC50 worked out at 60 nM in assay [1] and 120 nM in assay [2].
Taken in the same sequence, the figures for `CCc1nc2c(C)cc(C)nc2n1Cc1ccc(OC(C(=O)O)c2ccccc2C)c(Cl)c1` (centres undefined) were 1700 nM and 3.4 nM.
Regarding `CCCCc1nc2ccc(C)cc2c(=O)n1Cc1ccc(OC(C(=O)O)c2ccccc2)cc1` (centres undefined), the IC50 turned out to be 760 nM in assay [1] and 260 nM in assay [2].
In the case of `CCCc1nc2c(C)ccnc2n1Cc1ccc(OC(C(=O)O)c2ccccc2)cc1` (centres undefined), the IC50 in assay [1] is 3400 nM; in assay [2], 65 nM.
Regarding `CCCCc1cc(Cn2c(CC)nc3c(C)cc(C)nc32)ccc1OC(C(=O)O)c1ccccc1` (centres undefined), the IC50 in assay [1] amounted to 140 nM; in assay [2] it was 12 nM.
For `CCCc1cc(Cn2c(CC)nc3c(C)cc(C)nc32)ccc1OC(C(=O)O)c1ccccc1C` (centres undefined), the half-inhibitory concentration (IC50) in assay [1] came out at 2400 nM; in assay [2] it was 11 nM.
